Laboratory results: patent publication US9708336B2, “Metallo-beta-lactamase inhibitors” (priority 2014, dated 2017)
Read-outs that look alike come from different tables or passages of the source.

Columns and labels:
[1] = system: Serratia marcescens expressing IMP-1 (CL5741); assay: Antibiotic potentiation activity: synergistic concentration (MITC95) with imipenem, OD600 growth; type: cell-based; conditions: for Serratia marcescens expressing IMP-1 (CL5741) MITC95: concentration giving 95% inhibition of bacterial growth
Summary of the method: (§1)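 Spectrophotometric growth readings were taken following 22–24 h at 35 °C. Before that, organisms in 1.1× CAMHB were mixed with imipenem, used at 4 μg/ml in assay, and test compound.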

[2] = system: Escherichia coli expressing NDM-1 (CLB30005); assay: as above; type: cell-based; conditions: for Escherichia coli expressing NDM-1 (CLB 30005) MITC95: concentration giving 95% inhibition of bacterial growth; for Escherichia coli MITC95: Escherichia coli expressing NDM-1 (CLB30005), 95% growth inhibition
Summary of the method: as §1

[3] = system: Klebsiella pneumoniae expressing VIM-1 (IHMA599644); assay: as above; type: cell-based; conditions: for Klebsiella pneumoniae expressing VIM-1 (IHMA 599644) MITC95: concentration giving 95% inhibition of bacterial growth
Summary of the method: as §1

IMP-1 = IMP-1 (Serratia marcescens, UniProt P52699); assay: biochemical; type: biochemical; conditions: read-out: IMP-1 IC50
Sequence of IMP-1 (P52699 whole entry, looked up): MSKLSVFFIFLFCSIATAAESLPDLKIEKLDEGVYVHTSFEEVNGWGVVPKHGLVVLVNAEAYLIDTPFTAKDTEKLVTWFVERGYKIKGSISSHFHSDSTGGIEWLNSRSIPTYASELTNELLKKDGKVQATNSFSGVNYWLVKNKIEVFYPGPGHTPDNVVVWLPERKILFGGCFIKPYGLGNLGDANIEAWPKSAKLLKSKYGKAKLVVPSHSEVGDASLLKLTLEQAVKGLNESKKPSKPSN

NDM-1 = NDM-1 (Klebsiella pneumoniae, UniProt C7C422); assay: biochemical; type: biochemical; conditions: read-out: NDM-1 IC50
Sequence of NDM-1 (C7C422 whole entry, looked up, species assumed): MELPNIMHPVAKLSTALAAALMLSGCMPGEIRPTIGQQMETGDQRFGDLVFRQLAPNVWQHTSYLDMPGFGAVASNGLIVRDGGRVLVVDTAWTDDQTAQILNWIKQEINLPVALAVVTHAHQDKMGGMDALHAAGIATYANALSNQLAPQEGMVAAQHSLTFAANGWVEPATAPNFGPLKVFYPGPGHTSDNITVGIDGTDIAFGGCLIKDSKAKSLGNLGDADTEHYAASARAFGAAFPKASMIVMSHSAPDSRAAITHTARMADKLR

VIM-1 = VIM-1 (Pseudomonas aeruginosa (strain ATCC 15692 / DSM 22644 / CIP 104116 / JCM 14847 / LMG 12228 / 1C / PRS 101 / PAO1), UniProt A0A0F7KYQ8); assay: Enzyme activity: determination of IC50, fluorescence assay with CCF2-FA substrate (VIM-1); type: biochemical
[4] = system: Escherichia coli expressing NDM-1 (CLB30016); assay: Antibiotic potentiation activity: synergistic concentration (MITC95) with imipenem, OD600 growth; type: cell-based; conditions: CLB30016 (NDM-1), 95% inhibition of bacterial growth
Summary of the method: as §1

[5] = fluorescence assay with CCF2-FA substrate
[6] = fluorescence assay with CCF2-FA substrate, read-out: VIM-1 IC50
[7] = Serratia marcescens expressing IMP-1 (CL5741), 95% growth inhibition
[8] = Klebsiella pneumoniae expressing VIM-1 (IHMA599644), 95% growth inhibition
[9] = NDM-1 enzyme, CCF2-FA fluorescence assay
[10] = CL5741 (IMP-1), 95% inhibition of bacterial growth
[11] = IHMA599644 (VIM-1), 95% inhibition of bacterial growth

Compound	Serratia marcescens expressing IMP-1 (CL5741) MITC95 [1] [µM]	Escherichia coli expressing NDM-1 (CLB 30005) MITC95 [2] [µM]	Klebsiella pneumoniae expressing VIM-1 (IHMA 599644) MITC95 [3] [µM]	IC50 (IMP-1; [5]) [nM]	IC50 (NDM-1; [5]) [nM]	also measured
NS(=O)(=O)c1cccc(-c2nccs2)c1-c1nn[nH]n1 [Example 35, 2-(2H-tetrazol-5-yl)-3-(1,3-thiazol-2-yl)benzenesulfonamide]	50	1.953	100	2680	138	–
Cn1ccnc1-c1cccc(S(N)(=O)=O)c1-c1nn[nH]n1 [Example 38, 3-(1-methyl-1H-imidazol-2-yl)-2-(2H-tetrazol-5-yl)benzenesulfonamide]	25	0.7813	200	2390	281	–
NS(=O)(=O)c1cccc(-c2ncccn2)c1-c1nn[nH]n1 [Example 39, 3-pyrimidin-2-yl-2-(2H-tetrazol-5-yl)benzenesulfonamide]	50	1.563	>200	2570	346	–
Cn1cncc1-c1cccc(S(N)(=O)=O)c1-c1nn[nH]n1 [Example 43, 3-(1-methyl-1H-imidazol-5-yl)-2-(2H-tetrazol-5-yl)benzenesulfonamide]	75	1.172	>200	2090	310	–
CN(C(=O)c1ccc(-c2cccc(S(N)(=O)=O)c2-c2nn[nH]n2)cc1)C1CCOCC1 [Example 77, N-methyl-3′-sulfamoyl-N-(tetrahydro-2H-pyran-4-yl)-2′-(2H-tetrazol-5-yl)biphenyl-4-carboxamide]	28.13	9.375	>200	53.8	12	–
NS(=O)(=O)c1cccc(-c2ccc(OCCN3CCCCC3)cc2)c1-c1nn[nH]n1 [Example 89, 4′-(2-piperidin-1-ylethoxy)-2-(2H-tetrazol-5-yl)biphen-3-sulfonamide]	12.5	4.688	>200	319	54.7	–
NS(=O)(=O)c1cccc(-c2ccnc(CO)c2)c1-c1nn[nH]n1 [Example 92, 3-[2-(hydroxymethyl)pyridin-4-yl]-2-(2H-tetrazol-5-yl)benzenesulfonamide]	50	0.3906	–	–	–	–
NS(=O)(=O)c1cccc(-c2ccccn2)c1-c1nn[nH]n1 [Example 93, 3-pyridin-2-yl-2-(2H-tetrazol-5-yl)benzenesulfonamide]	–	0.7813	25	331	3.17	IC50 (VIM-1; [6]): 89.8 nM
NS(=O)(=O)c1cccc(-c2csc(CN3CCOCC3)c2)c1-c1nn[nH]n1 [Example 103, 3-[5-(morpholin-4-ylmethyl)thiophen-3-yl]-2-(2H-tetrazol-5-yl)benzenesulfonamide]	15.63	9.375	>200	311	49.4	–
CCOC(=O)CCn1cc(-c2cccc(S(N)(=O)=O)c2-c2nn[nH]n2)cn1 [Example 110, ethyl 3-{4-[3-sulfamoyl-2-(2H-tetrazol-5-yl)phenyl]-1H-pyrazol-1-yl}propanoate]	28.13	9.375	>200	445	51.9	–
NS(=O)(=O)c1cccc(C#CCN2CCC(=O)CC2)c1-c1nn[nH]n1 [Example 146, 3-[3-(4-oxopiperidin-1-yl)prop-1-yn-1-yl]-2-(2H-tetrazol-5-yl)benzenesulfonamide]	50	1.172	>200	766	65.5	–
NS(=O)(=O)c1nccc(-c2ccc(C(=O)NC3CCOCC3)cc2)c1-c1nnn[nH]1 [Example 186, 4-(2-Sulfamoyl-3-(1H-tetrazol-5-yl)pyridin-4-yl)-N-(tetrahydro-2H-pyran-4-yl)benzamide]	100	18.75	>200	564	97.1	–
NS(=O)(=O)c1cncc(-c2ccc(CO)cc2)c1-c1nnn[nH]1 [Example 189, 5-(4-(Hydroxymethyl)phenyl)-4-(1H-tetrazol-5-yl)pyridine-3-sulfonamide]	–	1.563	100	704	23.2	IC50 (VIM-1; VIM-1 IC50, fluorescence assay with CCF2-FA substrate): 685 nM
NS(=O)(=O)c1nccc(-c2cccnc2)c1-c1nnn[nH]1 [Example 193, 3′-(1H-tetrazol-5-yl)-[3,4′-bipyridine]-2′-sulfonamide]	150	0.7813	37.5	2660	374	–
CN(C)c1ccc(-c2ccnc(S(N)(=O)=O)c2-c2nn[nH]n2)cn1 [Example 211, 6-(dimethylamino)-3′-(2H-tetrazol-5-yl)-[3,4′-bipyridine]-2′-sulfonamide]	31.25	0.3906	200	537	45.6	–
NS(=O)(=O)c1ccc(O)cc1-c1nn[nH]n1 [Example 254]	–	–	–	–	–	Serratia marcescens MITC95 [1, 7]: >200 µM; Escherichia coli MITC95 [2]: 3.125 µM; Klebsiella pneumoniae MITC95 [3, 8]: >200 µM; IC50 (VIM-1; VIM-1 enzyme, CCF2-FA fluorescence assay, read-out: VIM-1 IC50): 20000 nM
COC(=O)c1ccc(-c2nn[nH]n2)c(S(N)(=O)=O)c1 [Example 255, Methyl 3-sulfamoyl-4-(2H-tetrazol-5-yl)benzoate]	–	–	–	–	–	Serratia marcescens MITC95 [1, 7]: >200 µM; Escherichia coli MITC95 [2]: 25 µM; Klebsiella pneumoniae MITC95 [3, 8]: >200 µM; IC50 (NDM-1; [9]): 699 nM
NS(=O)(=O)c1ccc2ccccc2c1-c1nnn[nH]1 [Example 399, 1-(1H-tetrazol-5-yl)naphthalene-2-sulfonamide]	–	–	–	–	–	Serratia marcescens MITC95 [1, 7]: >200 µM; Escherichia coli MITC95 [2]: 3.906 µM; Klebsiella pneumoniae MITC95 [3, 8]: >200 µM; IC50 (IMP-1; IMP-1 enzyme, CCF2-FA fluorescence assay): 15100 nM; IC50 (NDM-1; [9]): 117 nM
NC[C@H](N)C(=O)NC1CCC(c2ccc(C(F)(F)F)c(S(N)(=O)=O)c2-c2nnn[nH]2)CC1 (stereo partly drawn) [Example 837, (S)-2,3-diamino-N-((1r,4S)-4-(3-sulfamoyl-2-(1H-tetrazol-5-yl)-4-(trifluoromethyl)phenyl)cyclohexyl)propanamide]	–	–	–	21.2	8.68	Serratia marcescens MITC95 [1, 10]: 0.5859 µM; Klebsiella pneumoniae MITC95 [3, 11]: 6.25 µM; Escherichia coli MITC95 [4]: 1.563 µM; IC50 (VIM-1; [6]): 2.9 nM
NC1CCC(c2ccc(CCC3CCNCC3)c(S(N)(=O)=O)c2-c2nn[nH]n2)CC1 (stereo not shown) [Example 838, 3-(4-aminocyclohexyl)-6-[2-(4-piperidyl)ethyl]-2-(2H-tetrazol-5-yl)benzenesulfonamide]	–	–	–	1680	68.3	Serratia marcescens MITC95 [1, 10]: 12.5 µM; Klebsiella pneumoniae MITC95 [3, 11]: 6.25 µM; Escherichia coli MITC95 [4]: 3.125 µM; IC50 (VIM-1; [6]): 61.2 nM
NC1CCC(c2ccc(CC3CCNCC3)c(S(N)(=O)=O)c2-c2nn[nH]n2)CC1 (stereo not shown) [Example 839, 3-(4-aminocyclohexyl)-6-(piperidin-4-ylmethyl)-2-(2H-tetrazol-5-yl)benzenesulfonamide]	–	–	–	359	56.9	Serratia marcescens MITC95 [1, 10]: 6.25 µM; Klebsiella pneumoniae MITC95 [3, 11]: 6.25 µM; Escherichia coli MITC95 [4]: 3.125 µM; IC50 (VIM-1; [6]): 19.3 nM
NS(=O)(=O)c1c(C(F)(F)F)ccc(-c2cccn3ncnc23)c1-c1nnn[nH]1 [Example 840, 3-([1,2,4]triazolo[1,5-a]pyridin-8-yl)-2-(1H-tetrazol-5-yl)-6-(trifluoromethyl)benzenesulfonamide]	–	–	–	14.1	2.49	Serratia marcescens MITC95 [1, 10]: 12.5 µM; Klebsiella pneumoniae MITC95 [3, 11]: 6.25 µM; Escherichia coli MITC95 [4]: 3.125 µM; IC50 (VIM-1; [6]): 0.46 nM
